According to PMC6026847, “Synthesis and Evaluation of the First Fluorescent Antagonists of the Human P2Y2 Receptor Based on AR-C118925” (Journal of Medicinal Chemistry, 2018):
Where two headings read alike, the source gives them in different places. Blank lines part the entries; values can stand above or below the compound they belong to.

Columns and labels:
NLuc-P2Y2R = target: T1, NLuc-P2Y2R (Homo sapiens, UniProt P41231); assay: NanoBRET saturation binding in NLuc-P2Y2R 1321N1 astrocytoma cells; details: for NanoBRET pKd: Table 4; for NanoBRET pKd / Kd: saturation binding curves, 1321N1 cells expressing NLuc-P2Y2R, mean ± SEM; for specific NanoBRET signal: fixed 10 μM fluorescent conjugate in presence or absence of 10 μM 1, among 78–91 (Figure S1)
T1 construct: expressed in transfected cells
T1 sequence (P41231 2-377 limits assumed): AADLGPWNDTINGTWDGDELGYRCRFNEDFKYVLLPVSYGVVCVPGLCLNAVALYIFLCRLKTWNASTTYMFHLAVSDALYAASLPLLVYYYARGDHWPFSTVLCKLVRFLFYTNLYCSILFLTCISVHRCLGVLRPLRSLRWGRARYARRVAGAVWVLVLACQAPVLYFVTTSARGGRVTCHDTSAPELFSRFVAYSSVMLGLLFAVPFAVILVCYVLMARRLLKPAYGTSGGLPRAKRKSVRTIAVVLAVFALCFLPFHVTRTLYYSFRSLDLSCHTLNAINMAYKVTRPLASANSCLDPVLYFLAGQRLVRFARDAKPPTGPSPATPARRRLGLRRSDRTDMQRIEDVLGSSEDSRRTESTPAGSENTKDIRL
Protocol: To determine whether any of these conjugates had affinities for P2Y2R and consequently if they could be used in NanoBRET binding assays, a 1321N1 astrocytoma cell line expressing recombinant P2Y2R tagged on its N-terminus with NLuc (NLuc-P2Y2R) was generated. […] These NLuc-P2Y2 cells were treated with increasing concentrations of 66–69 and then treated with the NLuc substrate, furimazine, before the resulting BRET signal was monitored. […] However, this did illustrate the power of using NanoBRET to monitor ligand binding to low-affinity receptors.
Nucleophilic displacement of the 2-chloro substituent of 43 by either tert-butyl 3-aminopropanoate or tert-butyl 6-aminohexanoate gave the corresponding tert-butyl esters (70 and 71). […] The carboxylic acids were generated from the tert-butyl esters via TFA-mediated hydrolysis and subsequently coupled with tert-butyl (2-aminoethyl)carbamate or tert-butyl (2-(2-aminoethoxy)ethyl)carbamate to generate the corresponding amides (74–77). The Boc protecting groups were removed using TFA, and the resulting amines were coupled with the appropriate commercially available BODIPY succinimidyl ester (SE), generating a small library of 14 fluorescent conjugates (78–91). These fluorescent conjugates were initially tested using the aforementioned NanoBRET binding assay at fixed concentrations of 10 μM in the presence or absence of 10 μM 1 (see Figure S1 in the Supporting Information).
The saturation and competition binding assays were performed according to the methodology of Stoddart.[18] Briefly, the assays were performed on stably transfected NLucP2Y2-1321N1 cells that had been seeded 24 h prior to the experiment in white Thermo Scientific Matrix 96-well microplates. The medium in each well was removed and replaced with HBSS containing apyrase (1 U/mL) and the required concentration of the fluorescent ligand with or without the competing ligand. Upon the addition of the fluorescent ligand, the cells were incubated for 1 h at 37 °C without CO2. The NLuc substrate, furimazine (Promega), was then added to a final concentration of 10 μM, and the plate was incubated for a further 5 min at 37 °C without CO2. The luminescence and resulting BRET were measured using a PHERAstar FS plate reader (BMG Labtech) at room temperature. For the assays involving 97, sequential measurements of the filtered light emissions were made at 460 nm (80 nm bandpass) and >610 nm (long-pass), and the raw BRET ratios were calculated by dividing the >610 nm emissions by the 460 nm emissions. For the assays involving 98, the measurements were made at 475 nm (30 nm bandpass) and 535 nm (30 nm bandpass), and the raw BRET ratios were calculated by dividing the 535 nm emissions by the 475 nm emissions.
The total and nonspecific saturation binding curves were fitted simultaneously using eq 2: [drawing 7] 2 where Bmax is the maximum specific BRET signal, [b] is the nanomolar concentration of the fluorescent ligand, Kd is the equilibrium dissociation constant in nanomolar, M is the slope of the nonspecific-binding component, and C is the intercept with the Y-axis. The pKd is −logKd.

hP2Y2 = tested on: hP2Y2; design: method as in PMID 8564228; details: endogenous agonists; cited from earlier work
hP2Y2R [1] = target: T2, hP2Y2R (Homo sapiens, UniProt P41231); assay: Calcium-mobilization assay in P2Y2-1321N1 cells (antagonism of UTPγS); assay type: cell-based
T2 construct: The 1321N1 cells expressing wild-type P2Y2R (P2Y2R-1321N1) were gifted by Dr. Elizabeth Rosethorne; expressed in transfected cells; host or cells: 1321N1 astrocytoma cells (P2Y2R-1321N1), gifted
T2 sequence (P41231 whole entry): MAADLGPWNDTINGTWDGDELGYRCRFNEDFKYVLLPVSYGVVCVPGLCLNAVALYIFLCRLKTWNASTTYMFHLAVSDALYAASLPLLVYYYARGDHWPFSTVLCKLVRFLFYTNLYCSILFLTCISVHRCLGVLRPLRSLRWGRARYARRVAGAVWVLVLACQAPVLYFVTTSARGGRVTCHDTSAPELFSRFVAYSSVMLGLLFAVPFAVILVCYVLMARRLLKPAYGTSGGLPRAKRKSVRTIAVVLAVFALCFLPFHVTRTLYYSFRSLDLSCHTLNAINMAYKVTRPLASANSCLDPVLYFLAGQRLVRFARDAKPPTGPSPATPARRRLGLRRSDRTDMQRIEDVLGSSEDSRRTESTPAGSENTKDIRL

hP2Y2R [2] = target: T2, hP2Y2R; assay: Confocal microscopy of fluorescent ligands on 1321N1 astrocytoma cells expressing hP2Y2R; assay type: cell-based; details: for membrane-specific fluorescence after pretreatment with 1: 100 nM fluorescent ligand plus 10 μM 1, 30 min at 37 °C; for confocal imaging: fluorescence localisation: 100 nM fluorescent ligand, 1321N1 astrocytoma cells expressing hP2Y2R
Protocol: The P2Y2R-1321N1 cells were grown to approximately 80% confluency on eight-well Labtek chambered cover glasses (Nunc Nalgene) in normal growth medium. The growth medium was removed and replaced with HBSS containing apyrase (1 U/mL) and either 1 (10 μM) or the vehicle, and the cells incubated for 30 min at 37 °C without CO2. The cells were then incubated with 97 or 98 at the required concentration for 10 min at room temperature prior to the collection of the single-equatorial confocal images. The images were obtained on a Zeiss LSM710 confocal microscope using a 40× c-Apochromat 1.2NA water-immersion objective. For 97, the images were collected using a 633 nm excitation wavelength and a 488/561/633 dichroic, and the emissions were collected through a 650LP filter. For 98, a 488 nm excitation wavelength was used with the same dichroic, and the emissions were collected using an LP575 filter. In each case, a pinhole diameter of 1 airy unit was used, and the laser power, gain, and offset were kept the same for all of the samples within each experiment. For both 97 and 98, the images presented are as representative of an individual experiment with matched conditions. Linear adjustments to the image brightness and contrast have been applied equally across all of the comparative images using Zen software in order to prepare the images for presentation.

[3] = 10 μM fluorescent ligand, rightward shift of agonist dose–response curve, hP2Y2R-1321N1 cells, read-out: pKb (converted)

NanoBRET pKd (NLuc-P2Y2R): 6.07 ± 0.15 (3)
Compound: (E)-N1-(18-(4-(2-(5,5-Difluoro-7-(thiophen-2-yl)-5H-4λ^4,5λ^4-dipyrrolo[1,2-c:2′,1′-f][1,3,2]diazaborinin-3-yl)vinyl)phenoxy)-10,17-dioxo-3,6-dioxa-9,16-diazaoctadecyl)-5-((5-(2,8-dimethyl-5H-dibenzo[a,d][7]annulen-5-yl)-2-oxo-4-thioxo-3,4-dihydropyrimidin-1(2H)-yl)methyl)-N3-(1H-tetrazol-5-yl)isophthalamide [Example 69]

specific NanoBRET signal (NLuc-P2Y2R): largest specific NanoBRET signals
Compound: Cc1cc(C)n2c1C=C1C=CC(CCC(=O)NCCCCCC(=O)NCCOCCOCCNC(=O)CCNc3nc4c(s3)C=Cc3cc(Cl)ccc3C4c3cn(C)c(=O)[nH]c3=S)=[N+]1[B-]2(F)F (centres unmarked) [Example 87, N-(2-(2-(2-(3-((7-Chloro-4-(1-methyl-2-oxo-4-thioxo-1,2,3,4-tetrahydropyrimidin-5-yl)-4H-benzo[5,6]cyclohepta[1,2-d]thiazol-2-yl)amino)propanamido)ethoxy)ethoxy)ethyl)-6-(3-(5,5-difluoro-7,9-dimethyl-5H-4λ^4,5λ^4-dipyrrolo[1,2-c:2′,1′-f][1,3,2]diazaborinin-3-yl)propanamido)hexanamide]

NanoBRET pKd (NLuc-P2Y2R): 5.78 ± 0.18 (3)
Compound: (E)-N1-(2-(6-(2-(4-(2-(5,5-Difluoro-7-(thiophen-2-yl)-5H-4λ^4,5λ^4-dipyrrolo[1,2-c:2′,1′-f][1,3,2]diazaborinin-3-yl)vinyl)phenoxy)acetamido)hexanamido)ethyl)-5-((5-(2,8-dimethyl-5H-dibenzo[a,d][7]annulen-5-yl)-2-oxo-4-thioxo-3,4-dihydropyrimidin-1(2H)-yl)methyl)-N3-(1H-tetrazol-5-yl)isophthalamide [Example 67]

Kd (NLuc-P2Y2R; Table 5, read-out: pKd (converted)): 5130 nM | specific NanoBRET signal (NLuc-P2Y2R): largest specific NanoBRET signals
Compound: Cn1cc(C2c3ccc(Cl)cc3C=Cc3sc(NCCC(=O)NCCOCCOCCNC(=O)CCCCCNC(=O)COc4ccc(/C=C/C5=[N+]6C(=Cc7ccc(-c8cccs8)n7[B-]6(F)F)C=C5)cc4)nc32)c(=S)[nH]c1=O (centres unmarked) [Example 80, (E)-N-(2-(2-(2-(3-((7-Chloro-4-(1-methyl-2-oxo-4-thioxo-1,2,3,4-tetrahydropyrimidin-5-yl)-4H-benzo[5,6]cyclohepta[1,2-d]thiazol-2-yl)amino)propanamido)ethoxy)ethoxy)ethyl)-6-(2-(4-(2-(5,5-difluoro-7-(thiophen-2-yl)-5H-4λ^4,5λ^4-dipyrrolo[1,2-c:2′,1′-f][1,3,2]diazaborinin-3-yl)vinyl)phenoxy)acetamido)hexanamide]

Compound: Nc1ncnc2c1ncn2[C@@H]1O[C@H](COP(=O)(O)OP(=O)(O)OP(=O)(O)O)[C@@H](O)[C@H]1O [ATP, adenosine-5′-triphosphate]
EC50 (hP2Y2): 230 nM

Kb (hP2Y2R [1]; [3]): 2040 nM | membrane-specific fluorescence after pretreatment with 1 (hP2Y2R [2]): substantially reduced
Compound: O=C(CCCCCNC(=O)COc1ccc(/C=C/C2=[N+]3C(=Cc4ccc(-c5cccs5)n4[B-]3(F)F)C=C2)cc1)NCCNC(=O)CCNc1nc2c(s1)C=Cc1cc(Cl)ccc1C2c1cn(Cc2nc(C(=O)Nc3nnn[nH]3)cs2)c(=O)[nH]c1=S (centres unmarked) [Example 97, (E)-2-((5-(7-Chloro-2-((3-((2-(6-(2-(4-(2-(5,5-difluoro-7-(thiophen-2-yl)-5H-4λ^4,5λ^4-dipyrrolo[1,2-c:2′,1′-f][1,3,2]diazaborinin-3-yl)vinyl)phenoxy)acetamido)hexanamido)ethyl)amino)-3-oxopropyl)amino)-4H-benzo[5,6]cyclohepta[1,2-d]thiazol-4-yl)-2-oxo-4-thioxo-3,4-dihydropyrimidin-1(2H)-yl)methyl)-N-(1H-tetrazol-5-yl)thiazole-4-carboxamide]
confocal imaging: fluorescence localisation (hP2Y2R [2]): localized membrane fluorescence and very little intracellular fluorescence

Kb (hP2Y2R [1]; Table 7, Gaddum equation, shift of agonist dose–response curve by a single antagonist concentration, mean ± SEM, read-out: pKb Ca2+ mobilization (converted)): 501 nM | specific NanoBRET signal (NLuc-P2Y2R): largest specific NanoBRET signals
Compound: Cc1cc(C)n2c1C=C1C=CC(CCC(=O)NCCCCCC(=O)NCCNC(=O)CCNc3nc4c(s3)C=Cc3cc(Cl)ccc3C4c3cn(C)c(=O)[nH]c3=S)=[N+]1[B-]2(F)F (centres unmarked) [Example 86, N-(2-(3-((7-Chloro-4-(1-methyl-2-oxo-4-thioxo-1,2,3,4-tetrahydropyrimidin-5-yl)-4H-benzo[5,6]cyclohepta[1,2-d]thiazol-2-yl)amino)propanamido)ethyl)-6-(3-(5,5-difluoro-7,9-dimethyl-5H-4λ^4,5λ^4-dipyrrolo[1,2-c:2′,1′-f][1,3,2]diazaborinin-3-yl)propanamido)hexanamide]

Compound: O=c1ccn([C@@H]2O[C@H](COP(=O)(O)OP(=O)(O)OP(=O)(O)O)[C@@H](O)[C@H]2O)c(=O)[nH]1 [UTP, uridine-5′-triphosphate]
EC50 (hP2Y2): 140 nM

Kb (hP2Y2R [1]; [3]): 1350 nM | Kd (NLuc-P2Y2R; Table 6, read-out: NanoBRET pKd (converted)): 479 nM | membrane-specific fluorescence after pretreatment with 1 (hP2Y2R [2]): substantially reduced
Compound: CC1=CC(C)=[N+]2C1=Cc1ccc(CCC(=O)NCCCCCC(=O)NCCNC(=O)CCNc3nc4c(s3)C=Cc3cc(Cl)ccc3C4c3cn(Cc4nc(C(=O)Nc5nnn[nH]5)cs4)c(=O)[nH]c3=S)n1[B-]2(F)F (centres unmarked) [Example 98, (E)-2-((5-(7-Chloro-2-((3-((2-(6-(3-(5,5-difluoro-7,9-dimethyl-5H-5λ^4,6λ^4-dipyrrolo[1,2-c:2′,1′-f][1,3,2]diazaborinin-3-yl)propanamido)hexanamido)ethyl)amino)-3-oxopropyl)amino)-4H-benzo[5,6]cyclohepta[1,2-d]thiazol-4-yl)-2-oxo-4-thioxo-3,4-dihydropyrimidin-1(2H)-yl)methyl)-N-(1H-tetrazol-5-yl)thiazole-4-carboxamide]
confocal imaging: fluorescence localisation (hP2Y2R [2]): localized membrane fluorescence and very little intracellular fluorescence

specific NanoBRET signal (NLuc-P2Y2R): largest specific NanoBRET signals
Compound: Cc1cc(C)n2c1C=C1C=CC(CCC(=O)NCCNC(=O)CCNc3nc4c(s3)C=Cc3cc(Cl)ccc3C4c3cn(C)c(=O)[nH]c3=S)=[N+]1[B-]2(F)F (centres unmarked) [Example 85, 3-((7-Chloro-4-(1-methyl-2-oxo-4-thioxo-1,2,3,4-tetrahydropyrimidin-5-yl)-4H-benzo[5,6]cyclohepta[1,2-d]thiazol-2-yl)amino)-N-(2-(3-(5,5-difluoro-7,9-dimethyl-5H-4λ^4,5λ^4-dipyrrolo[1,2-c:2′,1′-f][1,3,2]diazaborinin-3-yl)propanamido)ethyl)propanamide]
